From US8835112B2, “Cell transdifferentiation into brown adipocytes” (Miami University, priority 2010, dated 2014)

Test system: HB-EGF and ADAM 12S co-expressing cells
Assay: Inhibition of adipogenesis by KB-R7785 (Oil Red O staining, morphology)
Assay type: cell-based, mouse
Description: Cells were grown in the 60 mm culture dishes (Corning). After reaching a cell confluence of 50-70%, the cells were washed with 1.0 ml of PBS for three times, fixed with 1.0 ml of 10% formalin for 60 minutes at room temperature. Oil Red O stock stain solution was prepared by mixing 0.3 g oil red O in 100 ml of isopropanol overnight at room temperature and filtered by using Whatman #2 filter papers. The formalin was removed and the cells were washed with deionized water. The culture dishes were aspirated and added with 1.0 ml of 60% isopropanol working solution to incubate 5 minutes at room temperature. Oil Red O working solution was prepared by diluting 30 ml of the stock stain with 20 ml of distilled water, filtered with Whatman #1 filter papers into a Coplin jar, and covered with a lid immediately. The 60% working isopropanol was removed and the culture dishes were filled with 1.0 ml working solution of Oil Red O, incubated for 5 minutes at room temperature. The cells were rinsed with deionized water until fluid becomes clear, and counterstained with 1 ml of hematoxylin for 1 minute at room temperature. The hematoxylin was then removed from the wells, and the cells were rinsed with deionized water and imaged under a microscope (Olympus). […]

What does the source list for CNC(=O)[C@@H](NC(=O)[C@H](CC(C)C)[C@H](C)C(=O)NO)c1ccccc1 [KB-R7785, [4-(N-hydroxyamino)-2R-isobutyl-3S-methylsuccinyl]-L-phenylglycine-N-methylamide]?
Reversal of brown adipocytes / adipocyte morphology (KB-R7785 10 μM, over 4 weeks, mouse fibroblasts stably transfected with ADAM 12S and HB-EGF): returned the brown adipocytes to mouse fibroblasts; Oil Red O staining after incubation with inhibitor (KB-R7785 20 μM in culture media, 3 weeks incubation, cells positive for Oil Red O before): lack Oil Red O staining
